In patent publication US12637469B2, “1H-pyrazole derivative and application thereof as dual target inhibitor of Syk and VEGFR2” (Ocumension Therapeutics (Suzhou) Co., Ltd., priority 2020, dated 2026):

What was measured:
Test in all cases: Eurofins KinaseProfiler off-target kinase inhibition
Type in all cases: biochemical
FGFR1(h) = target: T1, FGFR1(h) (Homo sapiens, UniProt P11362)
T1 construct: purchased Eurofins (KinaseProfiler platform)
Procedure: (§1) In order to investigate the specificity of the inhibition of the target by the compound, in this study, the activity and selectivity of test compound 1 on the off-target kinases in related pathways were tested on the Eurofins kinaseProfiler™ platform, and compound screening and analysis were conducted using IC50 value as the indicator.
(§2) Compound 1 was detected for each selected kinase using the standard Eurofins Kinase Profiler™ protocol, which followed the relevant standard operating procedures. The IC50 values of the inhibitory activity of the test compound 1 on 67 kinases including Abl(h), B-Raf(h), BTK(h) and JAK(h) were analyzed.

JNK1α1(h) = target: T2, JNK1α1(h) (Homo sapiens, UniProt P45983)
T2 construct: purchased Eurofins (KinaseProfiler service)
Procedure: as §1, §2

Txk(h) = target: T3, Txk(h) (Homo sapiens, UniProt P42681)
T3 construct: purchased Eurofins (KinaseProfiler platform)
Procedure: as §1, §2

MSK1(h) = target: T4, MSK1(h) (Homo sapiens, UniProt O75582)
T4 construct: purchased Eurofins (KinaseProfiler service)
Procedure: as §1, §2

Lck(h)activated = target: T5, Lck(h)activated (Homo sapiens, UniProt P06239)
T5 construct: purchased Eurofins (KinaseProfiler service)
T5 sequence (P06239 whole entry): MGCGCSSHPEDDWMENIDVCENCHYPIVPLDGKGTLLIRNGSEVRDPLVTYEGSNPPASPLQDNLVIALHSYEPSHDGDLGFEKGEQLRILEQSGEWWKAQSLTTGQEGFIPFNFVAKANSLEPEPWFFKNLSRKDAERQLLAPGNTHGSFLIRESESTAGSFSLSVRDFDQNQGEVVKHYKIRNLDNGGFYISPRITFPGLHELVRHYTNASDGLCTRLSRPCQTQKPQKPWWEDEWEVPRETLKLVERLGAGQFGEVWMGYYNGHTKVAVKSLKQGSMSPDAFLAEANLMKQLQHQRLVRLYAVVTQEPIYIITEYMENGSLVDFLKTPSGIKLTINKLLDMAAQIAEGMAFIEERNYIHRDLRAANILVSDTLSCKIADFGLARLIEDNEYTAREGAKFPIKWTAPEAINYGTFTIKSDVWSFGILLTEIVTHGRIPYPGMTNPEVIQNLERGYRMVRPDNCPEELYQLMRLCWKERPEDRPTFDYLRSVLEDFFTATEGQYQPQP
Procedure: as §1, §2

BTK(h) = target: T6, BTK(h) (Homo sapiens, UniProt Q06187)
T6 construct: purchased Eurofins (KinaseProfiler platform)
T6 sequence (Q06187 whole entry): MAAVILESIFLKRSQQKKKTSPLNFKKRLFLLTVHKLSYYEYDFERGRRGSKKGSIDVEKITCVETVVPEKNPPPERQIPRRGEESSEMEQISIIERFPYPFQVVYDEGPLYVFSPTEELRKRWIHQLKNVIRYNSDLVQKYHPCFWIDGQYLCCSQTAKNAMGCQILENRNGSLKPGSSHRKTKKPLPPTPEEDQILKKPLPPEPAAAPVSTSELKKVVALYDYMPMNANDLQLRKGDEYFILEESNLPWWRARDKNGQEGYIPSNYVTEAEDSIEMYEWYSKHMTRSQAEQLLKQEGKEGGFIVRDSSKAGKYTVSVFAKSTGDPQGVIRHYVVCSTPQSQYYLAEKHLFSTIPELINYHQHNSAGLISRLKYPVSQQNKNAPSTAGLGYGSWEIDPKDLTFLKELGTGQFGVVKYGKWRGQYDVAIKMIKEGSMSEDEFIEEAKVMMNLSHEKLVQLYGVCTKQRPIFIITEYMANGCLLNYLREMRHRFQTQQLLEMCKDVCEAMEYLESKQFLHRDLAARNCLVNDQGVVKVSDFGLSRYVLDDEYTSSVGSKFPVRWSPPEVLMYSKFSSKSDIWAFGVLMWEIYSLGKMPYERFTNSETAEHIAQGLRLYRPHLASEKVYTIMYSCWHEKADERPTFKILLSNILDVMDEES
Procedure: as §1, §2

TGFBR1(h) = target: T7, TGFBR1(h) (Homo sapiens, UniProt P36897)
T7 construct: purchased Eurofins (KinaseProfiler platform)
T7 sequence (P36897 34-503): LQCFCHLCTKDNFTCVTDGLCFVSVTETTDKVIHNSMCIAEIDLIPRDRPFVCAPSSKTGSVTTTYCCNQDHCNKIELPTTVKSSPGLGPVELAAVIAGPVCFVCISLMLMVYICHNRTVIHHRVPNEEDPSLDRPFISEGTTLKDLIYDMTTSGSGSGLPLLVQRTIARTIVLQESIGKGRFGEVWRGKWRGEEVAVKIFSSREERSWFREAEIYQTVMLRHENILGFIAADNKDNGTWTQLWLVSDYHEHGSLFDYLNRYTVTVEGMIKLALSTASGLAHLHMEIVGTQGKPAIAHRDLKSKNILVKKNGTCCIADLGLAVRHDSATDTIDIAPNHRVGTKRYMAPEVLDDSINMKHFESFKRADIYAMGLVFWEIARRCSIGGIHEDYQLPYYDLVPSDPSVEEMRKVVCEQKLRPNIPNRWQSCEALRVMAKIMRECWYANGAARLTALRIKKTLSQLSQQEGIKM
Procedure: as §1, §2

Flt3(h) = target: T8, Flt3(h) (Homo sapiens, UniProt P36888)
T8 construct: purchased Eurofins (KinaseProfiler platform)
T8 sequence (P36888 27-993): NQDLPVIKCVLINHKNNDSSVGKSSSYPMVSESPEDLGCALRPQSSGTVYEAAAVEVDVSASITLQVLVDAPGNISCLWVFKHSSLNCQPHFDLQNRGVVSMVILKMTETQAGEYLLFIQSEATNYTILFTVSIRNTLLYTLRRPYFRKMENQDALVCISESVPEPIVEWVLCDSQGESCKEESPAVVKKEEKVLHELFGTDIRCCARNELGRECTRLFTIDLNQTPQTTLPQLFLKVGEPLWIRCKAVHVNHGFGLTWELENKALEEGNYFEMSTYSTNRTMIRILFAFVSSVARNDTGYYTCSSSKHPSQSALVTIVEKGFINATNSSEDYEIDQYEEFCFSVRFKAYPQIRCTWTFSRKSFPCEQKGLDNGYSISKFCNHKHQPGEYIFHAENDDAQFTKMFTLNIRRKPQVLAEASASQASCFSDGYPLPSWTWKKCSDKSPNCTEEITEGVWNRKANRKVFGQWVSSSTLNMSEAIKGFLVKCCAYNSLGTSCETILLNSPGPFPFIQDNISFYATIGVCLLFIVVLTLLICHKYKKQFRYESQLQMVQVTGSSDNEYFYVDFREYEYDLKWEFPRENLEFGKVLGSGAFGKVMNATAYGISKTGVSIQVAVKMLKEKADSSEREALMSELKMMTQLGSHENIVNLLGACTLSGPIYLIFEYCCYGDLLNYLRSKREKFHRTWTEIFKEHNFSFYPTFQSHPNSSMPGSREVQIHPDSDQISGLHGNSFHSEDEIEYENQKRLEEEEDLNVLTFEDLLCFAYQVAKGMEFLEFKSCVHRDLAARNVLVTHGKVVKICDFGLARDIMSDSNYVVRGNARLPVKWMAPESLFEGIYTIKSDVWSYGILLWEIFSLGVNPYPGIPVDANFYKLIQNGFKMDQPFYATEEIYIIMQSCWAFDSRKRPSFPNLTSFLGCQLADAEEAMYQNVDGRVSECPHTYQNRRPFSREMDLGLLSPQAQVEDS
Procedure: as §1, §2

CDK4/cyclinD3(h) = target: T9, CDK4/cyclinD3(h) (Homo sapiens, UniProt P11802)
T9 construct: purchased Eurofins (KinaseProfiler platform)
Procedure: as §1, §2

SAPK2a(h) = target: T10, SAPK2a(h) (Homo sapiens, UniProt Q16539)
T10 construct: purchased Eurofins (KinaseProfiler platform)
Procedure: as §1, §2

c-kit(h) = target: T11, c-kit(h) (Homo sapiens, UniProt P10721)
T11 construct: purchased Eurofins (KinaseProfiler platform)
T11 sequence (P10721 26-976): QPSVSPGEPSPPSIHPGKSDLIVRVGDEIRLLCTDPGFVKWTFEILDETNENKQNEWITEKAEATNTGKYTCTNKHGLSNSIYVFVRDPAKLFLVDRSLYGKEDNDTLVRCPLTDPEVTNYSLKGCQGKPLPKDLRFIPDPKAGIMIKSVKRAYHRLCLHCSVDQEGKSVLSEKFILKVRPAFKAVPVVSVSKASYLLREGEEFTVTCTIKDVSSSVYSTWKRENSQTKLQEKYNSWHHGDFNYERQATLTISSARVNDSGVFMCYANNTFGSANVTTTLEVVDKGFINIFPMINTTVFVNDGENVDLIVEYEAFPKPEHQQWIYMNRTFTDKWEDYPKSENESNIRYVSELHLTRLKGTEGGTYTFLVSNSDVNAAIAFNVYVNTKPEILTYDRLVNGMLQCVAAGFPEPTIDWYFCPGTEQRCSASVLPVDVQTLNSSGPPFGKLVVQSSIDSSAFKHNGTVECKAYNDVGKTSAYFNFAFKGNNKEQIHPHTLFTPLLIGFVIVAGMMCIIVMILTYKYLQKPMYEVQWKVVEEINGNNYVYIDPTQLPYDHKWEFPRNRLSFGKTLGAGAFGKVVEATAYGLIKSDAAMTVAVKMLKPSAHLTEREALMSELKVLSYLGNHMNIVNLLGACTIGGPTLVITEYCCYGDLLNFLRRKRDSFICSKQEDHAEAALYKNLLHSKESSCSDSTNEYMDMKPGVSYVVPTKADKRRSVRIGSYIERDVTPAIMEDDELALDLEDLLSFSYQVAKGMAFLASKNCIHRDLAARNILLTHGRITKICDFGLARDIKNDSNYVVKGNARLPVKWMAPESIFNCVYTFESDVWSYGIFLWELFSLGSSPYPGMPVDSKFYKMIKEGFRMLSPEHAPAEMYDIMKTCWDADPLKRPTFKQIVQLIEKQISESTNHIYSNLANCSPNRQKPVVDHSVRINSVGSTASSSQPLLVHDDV
Procedure: as §1, §2

CK1ε(h) = target: T12, CK1ε(h) (Homo sapiens, UniProt P49674)
T12 construct: purchased Eurofins (KinaseProfiler platform)
Procedure: as §1, §2

Aurora-B(h) = target: T13, Aurora-B(h) (Homo sapiens, UniProt Q96GD4)
T13 construct: purchased Eurofins (KinaseProfiler platform)
T13 sequence (Q96GD4 whole entry): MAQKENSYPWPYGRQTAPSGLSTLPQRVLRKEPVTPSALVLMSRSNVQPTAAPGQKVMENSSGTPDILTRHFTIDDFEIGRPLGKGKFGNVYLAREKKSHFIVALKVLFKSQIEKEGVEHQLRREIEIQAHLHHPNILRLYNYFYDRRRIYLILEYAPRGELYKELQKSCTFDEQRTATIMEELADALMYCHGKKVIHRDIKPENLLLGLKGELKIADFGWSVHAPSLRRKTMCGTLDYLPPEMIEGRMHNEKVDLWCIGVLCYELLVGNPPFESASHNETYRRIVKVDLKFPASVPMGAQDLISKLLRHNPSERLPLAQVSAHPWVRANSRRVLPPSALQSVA
Procedure: as §1, §2

ACTR2(h) = target: T14, ACTR2(h) (Homo sapiens, UniProt P27037)
T14 construct: purchased Eurofins (KinaseProfiler platform)
Procedure: as §1, §2

FGFR2(h) = target: T15, FGFR2(h) (Homo sapiens, UniProt P21802)
T15 construct: purchased Eurofins (KinaseProfiler service)
Procedure: as §1, §2

Src(T341M)(h) = target: T16, Src(T341M)(h) (Homo sapiens, UniProt P12931, T341M)
T16 construct: purchased Eurofins (KinaseProfiler platform)
Procedure: as §1, §2

Abl(h) = target: T17, Abl(h) (Homo sapiens, UniProt P00519)
T17 construct: purchased Eurofins (KinaseProfiler platform)
T17 sequence (P00519 whole entry): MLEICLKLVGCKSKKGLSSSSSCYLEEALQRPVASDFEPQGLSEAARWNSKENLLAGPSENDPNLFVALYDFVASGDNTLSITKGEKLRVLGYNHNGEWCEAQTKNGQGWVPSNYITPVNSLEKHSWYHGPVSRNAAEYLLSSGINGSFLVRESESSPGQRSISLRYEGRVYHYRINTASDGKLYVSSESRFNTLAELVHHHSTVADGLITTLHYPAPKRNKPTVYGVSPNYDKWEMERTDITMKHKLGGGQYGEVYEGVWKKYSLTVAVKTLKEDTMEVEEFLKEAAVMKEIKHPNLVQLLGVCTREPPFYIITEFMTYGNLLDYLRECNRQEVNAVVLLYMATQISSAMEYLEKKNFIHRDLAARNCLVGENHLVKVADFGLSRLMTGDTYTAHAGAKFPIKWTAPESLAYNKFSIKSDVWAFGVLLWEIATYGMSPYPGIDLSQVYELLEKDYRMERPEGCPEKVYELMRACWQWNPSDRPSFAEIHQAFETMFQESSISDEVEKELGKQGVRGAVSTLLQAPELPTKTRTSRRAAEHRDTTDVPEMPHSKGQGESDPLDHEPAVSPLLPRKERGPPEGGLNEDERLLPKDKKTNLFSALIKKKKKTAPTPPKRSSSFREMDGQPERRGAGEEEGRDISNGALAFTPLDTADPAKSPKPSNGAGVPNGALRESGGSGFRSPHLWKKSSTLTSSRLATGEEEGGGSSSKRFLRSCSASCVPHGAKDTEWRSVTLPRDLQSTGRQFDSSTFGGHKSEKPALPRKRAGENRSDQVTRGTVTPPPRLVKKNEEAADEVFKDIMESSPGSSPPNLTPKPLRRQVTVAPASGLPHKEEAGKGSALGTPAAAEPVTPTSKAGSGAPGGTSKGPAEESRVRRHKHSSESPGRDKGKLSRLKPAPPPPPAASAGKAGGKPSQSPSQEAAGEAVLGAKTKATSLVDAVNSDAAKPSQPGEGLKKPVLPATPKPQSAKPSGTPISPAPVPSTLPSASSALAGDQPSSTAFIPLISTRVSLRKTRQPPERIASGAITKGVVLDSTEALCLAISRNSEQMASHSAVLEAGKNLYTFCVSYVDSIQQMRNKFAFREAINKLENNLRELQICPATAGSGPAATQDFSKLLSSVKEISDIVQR
Procedure: as §1, §2

Lyn(h) = target: T18, Lyn(h) (Homo sapiens, UniProt P07948)
T18 construct: purchased Eurofins (KinaseProfiler service)
Procedure: as §1, §2

PKA(h) = target: T19, PKA(h) (Homo sapiens, UniProt P17612)
T19 construct: purchased Eurofins (KinaseProfiler service)
Procedure: as §1, §2

FAK(h) = target: T20, FAK(h) (Homo sapiens, UniProt Q05397)
T20 construct: purchased Eurofins (KinaseProfiler service)
Procedure: as §1, §2

Rse(h) = target: T21, Rse(h) (Homo sapiens, UniProt Q06418)
T21 construct: purchased Eurofins (KinaseProfiler platform)
Procedure: as §1, §2

TYK2(h) = target: T22, TYK2(h) (Homo sapiens, UniProt P29597)
T22 construct: purchased Eurofins (KinaseProfiler platform)
Procedure: as §1, §2

mTOR/FKBP12(h) = target: T23, mTOR/FKBP12(h) (Homo sapiens, UniProt P42345)
T23 construct: purchased Eurofins (KinaseProfiler service)
Procedure: as §1, §2

CHK1(h) = target: T24, CHK1(h) (Homo sapiens, UniProt O14757)
T24 construct: purchased Eurofins (KinaseProfiler platform)
Procedure: as §1, §2

Hck(h)activated = target: T25, Hck(h)activated (Homo sapiens, UniProt P08631)
T25 construct: purchased Eurofins (KinaseProfiler service)
Procedure: as §1, §2

ErbB2(h) = target: T26, ErbB2(h) (Homo sapiens, UniProt P04626)
T26 construct: purchased Eurofins (KinaseProfiler platform)
Procedure: as §1, §2

Flt1(h) = target: T27, Flt1(h) (Homo sapiens, UniProt P17948)
T27 construct: purchased Eurofins (KinaseProfiler platform)
Procedure: as §1, §2

cSRC(h) = target: T28, cSRC(h) (Homo sapiens, UniProt P12931)
T28 construct: purchased Eurofins (KinaseProfiler platform)
Procedure: as §1, §2

ROCK-II(h) = target: T29, ROCK-II(h) (Homo sapiens, UniProt O75116)
T29 construct: purchased Eurofins (KinaseProfiler platform)
Procedure: as §1, §2

IR(h) = target: T30, IR(h) (Homo sapiens, UniProt P06213)
T30 construct: purchased Eurofins (KinaseProfiler service)
Procedure: as §1, §2

JAK2(h) = target: T31, JAK2(h) (Homo sapiens, UniProt O60674)
T31 construct: purchased Eurofins (KinaseProfiler service)
Procedure: as §1, §2

Fyn(h) = target: T32, Fyn(h) (Homo sapiens, UniProt P06241)
T32 construct: purchased Eurofins (KinaseProfiler platform)
Procedure: as §1, §2

JNK2α2(h) = target: T33, JNK2α2(h) (Homo sapiens, UniProt P45984)
T33 construct: purchased Eurofins (KinaseProfiler service)
Procedure: as §1, §2

PDGFRα(h) = target: T34, PDGFRα(h) (Homo sapiens, UniProt P16234)
T34 construct: purchased Eurofins (KinaseProfiler service)
Procedure: as §1, §2

Ros(h) = target: T35, Ros(h) (Homo sapiens, UniProt P08922)
T35 construct: purchased Eurofins (KinaseProfiler platform)
Procedure: as §1, §2

MKK6(h) = target: T36, MKK6(h) (Homo sapiens, UniProt P52564)
T36 construct: purchased Eurofins (KinaseProfiler service)
Procedure: as §1, §2

CDK6/cyclinD3(h) = target: T37, CDK6/cyclinD3(h) (Homo sapiens, UniProt Q00534)
T37 construct: purchased Eurofins (KinaseProfiler platform)
Procedure: as §1, §2

Yes(h) = target: T38, Yes(h) (Homo sapiens, UniProt P07947)
T38 construct: purchased Eurofins (KinaseProfiler platform)
Procedure: as §1, §2

mTOR(h) = target: T39, mTOR(h) (Homo sapiens, UniProt P42345)
T39 construct: purchased Eurofins (KinaseProfiler service)
Procedure: as §1, §2

IC50 (FGFR1(h)): 847 nM
IC50 (JNK1α1(h)): 1170 nM
IC50 (Txk(h)): 227 nM
IC50 (MSK1(h)): > 10000 nM
IC50 (Lck(h)activated): 1310 nM
IC50 (BTK(h)): 1040 nM
IC50 (TGFBR1(h)): > 10000 nM
IC50 (Flt3(h)): 12 nM
IC50 (CDK4/cyclinD3(h)): > 10000 nM
IC50 (SAPK2a(h)): > 10000 nM
IC50 (c-kit(h)): 2840 nM
IC50 (CK1ε(h)): 385 nM
IC50 (Aurora-B(h)): 232 nM
IC50 (ACTR2(h)): > 10000 nM
IC50 (FGFR2(h)): > 10000 nM
IC50 (Src(T341M)(h)): 1010 nM
IC50 (Abl(h)): 152 nM
IC50 (Lyn(h)): 934 nM
IC50 (PKA(h)): > 10000 nM
IC50 (FAK(h)): 469 nM
IC50 (Rse(h)): > 10000 nM
IC50 (TYK2(h)): 117 nM
IC50 (mTOR/FKBP12(h)): > 10000 nM
IC50 (CHK1(h)): > 10000 nM
IC50 (Hck(h)activated): 418 nM
IC50 (ErbB2(h)): > 10000 nM
IC50 (Flt1(h)): 104 nM
IC50 (cSRC(h)): 367 nM
IC50 (ROCK-II(h)): 499 nM
IC50 (IR(h)): > 10000 nM
IC50 (JAK2(h)): 141 nM
IC50 (Fyn(h)): 373 nM
IC50 (JNK2α2(h)): > 10000 nM
IC50 (PDGFRα(h)): 2700 nM
IC50 (Ros(h)): > 10000 nM
IC50 (MKK6(h)): > 10000 nM
IC50 (CDK6/cyclinD3(h)): > 10000 nM
IC50 (Yes(h)): 204 nM
IC50 (mTOR(h)): > 10000 nM
Structure (SMILES): c1cn2c(n1)c(Nc1ccc(N3CCOCC3)cc1)nc1ccc(-c3cn[nH]c3)cc12 [Compound 1]
